Ends that are not written are not given here.
How the values were obtained:
T2 cells = assay: Peptide loading of T2 cells with KLK3 peptide isotopologues; absolute pMHC copy numbers by BB7.2 immunoprecipitation and LC/MS; format: cell-based, human; conditions: T2 cells loaded at 0.1 μg/mL (~81 nM) peptide, 2 h incubation
Protocol: In order to translate detected relative ion intensities into an absolute measure, isotopologue-specific external calibration curves were acquired in two technical replicates. Therefore, a total of six different isotopologues (Table 1; reconstituted as described above) were mixed to a final concentration of 20 pmol μL^−1. This stock was subsequently further titrated in 5% formic acid prior to LC/MS analysis. The internal standard KLK3 peptide_L2P5 was added at a constant amount of 5 fmol per LC/MS injection. Samples were separated by reversed-phase chromatography (nanoAcquity UPLC, Waters, Milford, Mass.) using ACQUITY UPLC BEH C18 columns (75 μm×250 mm, Waters, Milford, Mass.) and a gradient ranging from 1 to 34.5% ACN over the course of 35 min. Mass spectrometry was performed on an online coupled Orbitrap Fusion Tribrid mass spectrometer (Thermo Fisher Scientific, Waltham, Mass.) in scheduled parallel reaction monitoring (sPRM) mode following collisional-induced dissociation (CID) of selected precursor ions. Subsequent peak boundary integration was performed in Skyline (MacLean et al., 2010).
The T2 cell line was obtained from DSMZ (ACC 598, lot #2). Cells were cultured in RPMI-1640 medium (Gibco, #A1049101) supplemented with 10% heat-inactivated FBS (Gibco, #10270106) in absence of antibiotics, at 37° C. in a humidified atmosphere containing 5% C02. […]

Hs695T cells = assay: Peptide loading of Hs695T cells with PRAME peptide isotopologues; absolute copy numbers by AbsQuant (immunoprecipitation and LC/MS); format: cell-based; conditions: peptide-loaded Hs695T cells; 1 nM is ~0.001 μg/mL
Protocol: (§1) In order to translate detected relative ion intensities into an absolute measure, isotopologue-specific external calibration curves were acquired in two technical replicates. Therefore, a total of seven different isotopologues (Table 2; reconstituted as described above) were mixed to a final concentration of 20 pmol μL^−1. This stock was subsequently further titrated in 5% formic acid prior to LC/MS analysis. The internal standard PRAME peptide_L3L6 was added at a constant amount of 100 fmol per LC/MS injection. Samples were separated by reversed-phase chromatography (nanoAcquity UPLC, Waters, Milford, Mass.) using ACQUITY UPLC BEH C18 columns (75 μm×250 mm, Waters, Milford, Mass.) and a gradient ranging from 1 to 34.5% ACN over the course of 35 min. […]
(§2) The functional analysis of PRAME-loaded T98G cells was assessed in a co-culture setup. […]
(§3) In brief, 2.5×10^7 T98G (or 2×10^7 Hs695T) cells were incubated in 40 ml DMEM+10% FCS supplemented with the respective concentration of peptide for 2 h at 37° C., 5% C02. […] By adding specific substrate, the amount of LDH present in the supernatant was determined by measuring the colorimetric signal in a microplate reader. […]

T98G cells = assay: Peptide loading of T98G cells with PRAME peptide isotopologues; absolute copy numbers by AbsQuant (immunoprecipitation and LC/MS); format: cell-based; conditions: peptide-loaded T98G cells; 1 nM is ~0.001 μg/mL
Protocol: as §1, §2, §3

Row | Substance | absolute peptide abundance (T2 cells) | loading concentration from which copy numbers are detectable (Hs695T cells) [nM] | loading concentration from which copy numbers are detectable (T98G cells) [nM]
1 | SL*F*HPEDTGQV* [KLK3 peptide L2F3V 11] | ~10,000 copies per cell |  | 
2 | SLLQHLIGL (not fully specified; listed as Homo sapiens) [PRAME peptide, PRAME-derived MHC-restricted peptide, loaded as isotopologues] |  | ≥ 1 | ≥ 1

Source: US20230024554A1, “METHOD OF CHARACTERIZING THE BINDING CHARACTERISTICS BETWEEN A PEPTIDE OF INTEREST AND MHC MOLECULES” (Immatics Biotechnologies GmbH, priority 2021, published 2023)
